# Source: US10517889B2, “Modulators of SMAD7 expression” (Ionis Pharmaceuticals, Inc., priority 2017, dated 2019)
# Strand notation (5' to 3'): a small letter for the sugar, then the base; units joined by * are phosphorothioate-linked, units joined directly phosphodiester-linked; [ ] holds rarer units or linkages, { } end groups; capitals alone tell only the bases. e = 2'-O-(2-methoxyethyl) (MOE); [5mC] = 5-methylcytosine; d = 2'-deoxy (DNA)
# System: human SMAD7 mRNA
# Assay: Antisense inhibition of human SMAD7 mRNA expression in Hep3B cells by 5-10-5 MOE gapmers, single concentration, electroporation, RT-PCR (Example 1, Study 1 and 2)
# Format: cell-based
# Conditions: Study 2, electroporation with 15,000 nM antisense oligonucleotide, 5-10-5 MOE gapmers targeting SEQ ID NO: 1 and 2
# Experimental: Antisense oligonucleotides were designed to target human SMAD7 mRNA and were tested for their effects on SMAD7 mRNA expression in vitro. Cultured Hep3B cells at a density of 20,000 cells per well were transfected using electroporation with antisense oligonucleotide ION 483663 (a 5-10-5 MOE gapmer), the sequence of which overlaps with ION 28453 (a 4-10-4 MOE gapmer) was included in these assays for comparison. ION 28453 has been previously disclosed in U.S. Pat. No. 6,159,697). After a treatment period of approximately 24 hours, RNA was isolated from the cells and SMAD7 mRNA levels were measured by quantitative real-time PCR. Primer probe set RTS5062 (forward sequence […], designated herein as SEQ ID NO: 11; reverse sequence […], designated herein as SEQ ID NO: 12; probe sequence […], designated herein as SEQ ID NO: 13) was used to measure human SMAD7 mRNA levels. SMAD7 mRNA levels were adjusted according to total RNA content, as measured by RIBOGREEN®. Results are presented as percent inhibition of SMAD7 mRNA expression, relative to untreated control cells.
# The newly designed chimeric antisense oligonucleotides in the Tables below were designed as 5-10-5 MOE gapmers. The gapmers are 20 nucleosides in length, wherein the central gap segment comprises of ten 2′-deoxynucleosides and is flanked by wing segments on the 5′ direction and the 3′ direction comprising five nucleosides each. Each nucleoside in the 5′ wing segment and each nucleoside in the 3′ wing segment has a 2′-MOE modification. The internucleoside linkages throughout each gapmer are phosphorothioate (P═S) linkages. All cytosine residues throughout each gapmer are 5-methylcytosines.
# “Start site” indicates the 5′-most nucleoside to which the gapmer is targeted in the human gene sequence. “Stop site” indicates the 3′-most nucleoside to which the gapmer is targeted human gene sequence.
# Cultured Hep3B cells at a density of 20,000 cells per well were transfected using electroporation with 5,000 nM antisense oligonucleotide.
# Cultured Hep3B cells at a density of 20,000 cells per well were transfected using electroporation with 15,000 nM antisense oligonucleotide. The antisense oligonucleotides were tested in a series of experiments that had similar culture conditions as described below.
# Some of the oligonucleotides presented were complementary to SMAD7 mRNA sequences RefSeqNo. NM_001190821.1 (designated herein as SEQ ID NO: 3) or RefSeqNo. NM_001190822.1 (designated herein as SEQ ID NO: 4), and are presented in a separate table shown below.
row,Substance,% Inhibition [%]
1,771359 (antisense eG*eT*e[5mC]*eA*e[5mC]*d[5mC]*d[5mC]*dG*dT*d[5mC]*dT*dG*dG*dG*d[5mC]*eT*e[5mC]*e[5mC]*eG*eG) [compound 771359],15
2,771361 (antisense eA*e[5mC]*eA*eG*e[5mC]*dA*d[5mC]*d[5mC]*dT*dT*dG*dT*d[5mC]*dA*d[5mC]*e[5mC]*e[5mC]*eG*eT*e[5mC]) [compound 771361],27
3,771362 (antisense eG*eT*eA*eA*eG*dA*d[5mC]*dA*dG*dA*d[5mC]*d[5mC]*dA*d[5mC]*dA*eG*e[5mC]*eA*e[5mC]*e[5mC]) [compound 771362],15
4,771366 (antisense eT*eG*e[5mC]*eT*eG*dA*dT*dT*dA*dT*dT*dA*dA*dT*dG*eG*eT*e[5mC]*eT*eG) [compound 771366],0
5,771367 (antisense e[5mC]*eT*eT*eG*eA*dT*dG*d[5mC]*dT*dG*dA*dT*dT*dA*dT*eT*eA*eA*eT*eG) [compound 771367],0
6,771369 (antisense e[5mC]*eA*eA*eA*eA*dG*dG*d[5mC]*dT*dG*dA*d[5mC]*dT*d[5mC]*dG*e[5mC]*eG*eG*e[5mC]*e[5mC]) [compound 771369],22
7,771370 (antisense e[5mC]*eA*eT*eT*e[5mC]*d[5mC]*dA*dA*dA*dA*dG*dG*d[5mC]*dT*dG*eA*e[5mC]*eT*e[5mC]*eG) [compound 771370],18
8,771374 (antisense eA*eG*e[5mC]*eA*eT*dG*dA*dA*dA*dG*dA*d[5mC]*dA*dA*dA*e[5mC]*e[5mC]*eA*e[5mC]*eA) [compound 771374],51
9,771375 (antisense e[5mC]*eT*eA*eA*eA*d[5mC]*dA*dG*d[5mC]*dA*dT*dG*dA*dA*dA*eG*eA*e[5mC]*eA*eA) [compound 771375],4
10,771377 (antisense eT*eA*eA*eG*e[5mC]*dA*d[5mC]*dG*d[5mC]*dT*d[5mC]*dT*dA*dA*dA*e[5mC]*eA*eG*e[5mC]*eA) [compound 771377],0
11,771378 (antisense eA*eT*e[5mC]*eT*eT*dT*dA*dA*dG*d[5mC]*dA*d[5mC]*dG*d[5mC]*dT*e[5mC]*eT*eA*eA*eA) [compound 771378],22
12,771382 (antisense eA*eA*eA*eT*eA*dA*dA*dA*dA*d[5mC]*dA*d[5mC]*d[5mC]*dA*dA*eG*eA*eT*e[5mC]*e[5mC]) [compound 771382],0
13,771383 (antisense eT*eA*e[5mC]*eA*e[5mC]*dA*dA*dA*dT*dA*dA*dA*dA*dA*d[5mC]*eA*e[5mC]*e[5mC]*eA*eA) [compound 771383],0
14,771385 (antisense e[5mC]*eA*eG*eT*e[5mC]*dT*dG*d[5mC]*dT*dG*dT*dG*dG*dA*dT*eT*eT*eG*eA*eA) [compound 771385],25
15,771391 (antisense eT*e[5mC]*e[5mC]*eG*eG*d[5mC]*dT*dG*d[5mC]*d[5mC]*d[5mC]*d[5mC]*dA*d[5mC]*d[5mC]*e[5mC]*e[5mC]*eG*e[5mC]*eG) [compound 771391],16
16,771393 (antisense eG*e[5mC]*eT*e[5mC]*e[5mC]*dG*dG*d[5mC]*dT*dG*d[5mC]*d[5mC]*d[5mC]*d[5mC]*dA*e[5mC]*e[5mC]*e[5mC]*e[5mC]*eG) [compound 771393],0
17,771394 (antisense e[5mC]*eG*e[5mC]*eT*e[5mC]*d[5mC]*dG*dG*d[5mC]*dT*dG*d[5mC]*d[5mC]*d[5mC]*d[5mC]*eA*e[5mC]*e[5mC]*e[5mC]*e[5mC]) [compound 771394],10

# Same assay, conditions: electroporation with 15,000 nM antisense oligonucleotide (Study 2), 5-10-5 MOE gapmers targeting SEQ ID NO: 1 and 2
row,Substance,% Inhibition of SMAD7 mRNA [%]
1,771363 (antisense eT*e[5mC]*eA*eG*eG*d[5mC]*dT*dT*d[5mC]*dA*d[5mC]*dT*dG*d[5mC]*d[5mC]*e[5mC]*eA*eT*e[5mC]*eG) [compound 771363],35
2,771379 (antisense eG*eA*eT*e[5mC]*e[5mC]*dA*dT*d[5mC]*dT*dT*dT*dA*dA*dG*d[5mC]*eA*e[5mC]*eG*e[5mC]*eT) [compound 771379],21
3,771395 (antisense eG*e[5mC]*eG*e[5mC]*eT*d[5mC]*d[5mC]*dG*dG*d[5mC]*dT*dG*d[5mC]*d[5mC]*d[5mC]*e[5mC]*eA*e[5mC]*e[5mC]*e[5mC]) [compound 771395],34

# Same assay, conditions: electroporation, 5,000 nM, approximately 24 hours, relative to untreated control cells, gapmers targeting SEQ ID NO: 1 and 2
row,Substance,% inhibition of SMAD7 mRNA expression [%]
1,771366 (antisense eT*eG*e[5mC]*eT*eG*dA*dT*dT*dA*dT*dT*dA*dA*dT*dG*eG*eT*e[5mC]*eT*eG) [compound 771366],49
2,771374 (antisense eA*eG*e[5mC]*eA*eT*dG*dA*dA*dA*dG*dA*d[5mC]*dA*dA*dA*e[5mC]*e[5mC]*eA*e[5mC]*eA) [compound 771374],44
3,771382 (antisense eA*eA*eA*eT*eA*dA*dA*dA*dA*d[5mC]*dA*d[5mC]*d[5mC]*dA*dA*eG*eA*eT*e[5mC]*e[5mC]) [compound 771382],55

# Same assay, conditions: electroporation, 15,000 nM antisense oligonucleotide (Study 2), 5-10-5 MOE gapmers targeting SEQ ID NO: 1 and 2
row,Substance,% inhibition of SMAD7 mRNA expression [%]
1,771363 (antisense eT*e[5mC]*eA*eG*eG*d[5mC]*dT*dT*d[5mC]*dA*d[5mC]*dT*dG*d[5mC]*d[5mC]*e[5mC]*eA*eT*e[5mC]*eG) [compound 771363],12
2,771364 (antisense eT*eA*eA*eT*eG*dG*dT*d[5mC]*dT*dG*d[5mC]*dT*d[5mC]*dA*dG*eG*e[5mC]*eT*eT*e[5mC]) [compound 771364],23
3,771365 (antisense eA*eT*eT*eA*eT*dT*dA*dA*dT*dG*dG*dT*d[5mC]*dT*dG*e[5mC]*eT*e[5mC]*eA*eG) [compound 771365],5
4,771372 (antisense eA*e[5mC]*eA*eA*eA*d[5mC]*d[5mC]*dA*d[5mC]*dA*d[5mC]*dA*dT*dT*d[5mC]*e[5mC]*eA*eA*eA*eA) [compound 771372],37
5,771373 (antisense eG*eA*eA*eA*eG*dA*d[5mC]*dA*dA*dA*d[5mC]*d[5mC]*dA*d[5mC]*dA*e[5mC]*eA*eT*eT*e[5mC]) [compound 771373],32
6,771379 (antisense eG*eA*eT*e[5mC]*e[5mC]*dA*dT*d[5mC]*dT*dT*dT*dA*dA*dG*d[5mC]*eA*e[5mC]*eG*e[5mC]*eT) [compound 771379],0
7,771380 (antisense eA*e[5mC]*e[5mC]*eA*eA*dG*dA*dT*d[5mC]*d[5mC]*dA*dT*d[5mC]*dT*dT*eT*eA*eA*eG*e[5mC]) [compound 771380],0
8,771381 (antisense eA*eA*eA*eA*e[5mC]*dA*d[5mC]*d[5mC]*dA*dA*dG*dA*dT*d[5mC]*d[5mC]*eA*eT*e[5mC]*eT*eT) [compound 771381],0
9,771388 (antisense eG*e[5mC]*eG*e[5mC]*e[5mC]*d[5mC]*dT*dG*d[5mC]*dG*d[5mC]*dG*dG*d[5mC]*dT*e[5mC]*eT*e[5mC]*e[5mC]*eG) [compound 771388],31
10,771389 (antisense e[5mC]*eA*e[5mC]*e[5mC]*e[5mC]*d[5mC]*dG*d[5mC]*dG*d[5mC]*dG*dG*d[5mC]*d[5mC]*d[5mC]*eG*e[5mC]*eG*e[5mC]*e[5mC]) [compound 771389],18
11,771395 (antisense eG*e[5mC]*eG*e[5mC]*eT*d[5mC]*d[5mC]*dG*dG*d[5mC]*dT*dG*d[5mC]*d[5mC]*d[5mC]*e[5mC]*eA*e[5mC]*e[5mC]*e[5mC]) [compound 771395],0

# Same assay, conditions: electroporation, 15,000 nM, approximately 24 hours, relative to untreated control cells, gapmers targeting SEQ ID NO: 1 and 2
row,Substance,% inhibition of SMAD7 mRNA expression [%]
1,771360 (antisense eA*e[5mC]*e[5mC]*eT*eT*dG*dT*d[5mC]*dA*d[5mC]*d[5mC]*d[5mC]*dG*dT*d[5mC]*eT*eG*eG*eG*e[5mC]) [compound 771360],49
2,771368 (antisense e[5mC]*eG*eG*e[5mC]*e[5mC]*dT*dT*dG*dA*dT*dG*d[5mC]*dT*dG*dA*eT*eT*eA*eT*eT) [compound 771368],27
3,771376 (antisense eA*e[5mC]*eG*e[5mC]*eT*d[5mC]*dT*dA*dA*dA*d[5mC]*dA*dG*d[5mC]*dA*eT*eG*eA*eA*eA) [compound 771376],17
4,771384 (antisense eT*eG*e[5mC]*eT*eG*dT*dG*dG*dA*dT*dT*dT*dG*dA*dA*eA*eA*eG*eG*eG) [compound 771384],18
5,771392 (antisense e[5mC]*eT*e[5mC]*e[5mC]*eG*dG*d[5mC]*dT*dG*d[5mC]*d[5mC]*d[5mC]*d[5mC]*dA*d[5mC]*e[5mC]*e[5mC]*e[5mC]*eG*e[5mC]) [compound 771392],28
